Laboratory results: patent US9902716B2, “Fluorinated benzofuranyl-pyrimidine derivatives containing a sulfone group” (Bayer Pharma Aktiengesellschaft, priority 2014, dated 2018)

Legend:
B16F10 cells = assay: Proliferation assay B16F10 (Method 3, crystal violet); type: cell-based; conditions: Mus musculus, B16-F10, 96 h; B16F10, 4 days incubation; read-out: Inhibition of B16F10 cell proliferation IC50
Method: (§1) Cultivated tumour cells (HeLa, human cervical tumour cells, ATCC CCL-2; NCI-H460, human non-small cell lung carcinoma cells, ATCC HTB-177; A2780, human ovarian carcinoma cells, ECACC #93112519; DU 145, hormone-independent human prostate carcinoma cells, ATCC HTB-81; HeLa-MaTu-ADR, multidrug-resistant human cervical carcinoma cells, EPO-GmbH Berlin; Caco-2, human colorectal carcinoma cells, ATCC HTB-37; B16F10, mouse melanoma cells, ATCC CRL-6475) were plated at a density of 5,000 cells/well (DU145, HeLa-MaTu-ADR), 3,000 cells/well (NCI-H460, HeLa), 2,500 cells/well (A2780), 1,500 cells/well (Caco-2), or 1,000 cells/well (B16F10) in a 96-well multititer plate in 200 μL of their respective growth medium supplemented 10% fetal calf serum. After 24 hours, the cells of one plate (zero-point plate) were stained with crystal violet (see below), while the medium of the other plates was replaced by fresh culture medium (200 μl), to which the test substances were added in various concentrations (0 μM, as well as in the range of 0.001-10 μM; the final concentration of the solvent dimethyl sulfoxide was 0.5%). The cells were incubated for 4 days in the presence of test substances. Cell proliferation was determined by staining the cells with crystal violet: the cells were fixed by adding 20 μl/measuring point of an 11% glutaric aldehyde solution for 15 minutes at room temperature. After three washing cycles of the fixed cells with water, the plates were dried at room temperature. The cells were stained by adding 100 μl/measuring point of a 0.1% crystal violet solution (pH 3.0). After three washing cycles of the stained cells with water, the plates were dried at room temperature. The dye was dissolved by adding 100 μl/measuring point of a 10% acetic acid solution. The extinction was determined by photometry at a wavelength of 595 nm. The change of cell number, in percent, was calculated by normalization of the measured values to the extinction values of the zero-point plate (=0%) and the extinction of the untreated (0 μm) cells (=100%). The IC50 values (inhibitory concentration at 50% of maximal effect) were determined by means of a 4 parameter fit.

HeLa-MaTu-ADR cells = assay: Proliferation assay HeLa-MaTu-ADR (Method 3, crystal violet); type: cell-based; conditions: Homo sapiens, 96 h, 4 days incubation, read-out: Inhibition of HeLa-MaTu-ADR cell proliferation IC50
Method: as §1

CDK2/CycE = biological target: T1, CDK2/CycE (Homo sapiens, UniProt P24941); assay: CDK2/CycE kinase assay (Method 2a, TR-FRET); type: biochemical; conditions: 10 μM ATP
T1 construct: GST; purchased ProQinase GmbH (Freiburg, Germany); host or cells: insect cells (Sf9)
Source text: 2a. CDK2/CycE Kinase Assay:
CDK2/CycE-inhibitory activity of compounds of the present invention was quantified employing the CDK2/CycE TR-FRET assay as described in the following paragraphs:
Recombinant fusion proteins of GST and human CDK2 and of GST and human CycE, expressed in insect cells (Sf9) and purified by Glutathion-Sepharose affinity chromatography, were purchased from ProQinase GmbH (Freiburg, Germany). As substrate for the kinase reaction biotinylated peptide biotin-Ttds-YISPLKSPYKISEG (C-terminus in amid form) was used which can be purchased e.g. form the company JERINI Peptide Technologies (Berlin, Germany).
For the assay 50 nl of a 100 fold concentrated solution of the test compound in DMSO was pipetted into a black low volume 384 well microtiter plate (Greiner Bio-One, Frickenhausen, Germany), 2 μl of a solution of CDK2/CycE in aqueous assay buffer [50 mM Tris/HCl pH 8.0, 10 mM MgCl2, 1.0 mM dithiothreitol, 0.1 mM sodium ortho-vanadate, 0.01% (v/v) Nonidet-P40 (Sigma)] were added and the mixture was incubated for 15 min at 22° C. to allow pre-binding of the test compounds to the enzyme before the start of the kinase reaction. Then the kinase reaction was started by the addition of 3 μl of a solution of adenosine-tri-phosphate (ATP, 16.7 μM=> final conc. in the 5 μl assay volume is 10 μM) and substrate (1.25 μM=> final conc. in the 5 μl assay volume is 0.75 μM) in assay buffer and the resulting mixture was incubated for a reaction time of 25 min at 22° C. […]
The resulting mixture was incubated 1 h at 22° C. to allow the formation of complex between the phosphorylated biotinylated peptide and the detection reagents. Subsequently the amount of phosphorylated substrate was evaluated by measurement of the resonance energy transfer from the Euchelate to the streptavidine-XL. Therefore, the fluorescence emissions at 620 nm and 665 nm after excitation at 350 nm was measured in a TR-FRET reader, e.g. a Rubystar (BMG Labtechnologies, Offenburg, Germany) or a Viewlux (Perkin-Elmer). […]

Caco-2 cells = assay: Proliferation assay Caco-2 (Method 3, crystal violet); type: cell-based; conditions: Homo sapiens, 96 h; Caco-2, 4 days incubation; read-out: Inhibition of Caco-2 cell proliferation IC50
Method: as §1, with “The IC50 values (inhibitory concentration at 50% of maximal effect) were determined by means of a 4 parameter fit.” left out

NCI-H460 cells = assay: Proliferation assay NCI-H460 (Method 3, crystal violet); type: cell-based; conditions: Homo sapiens, 96 h; NCI-H460, 4 days incubation; read-out: Inhibition of NCI-H460 cell proliferation IC50
Method: as §1

| IC50 (B16F10 cells) [µM] | IC50 (HeLa-MaTu-ADR cells) [µM] | IC50 (CDK2/CycE) [µM] | IC50 (Caco-2 cells) [µM] | IC50 (NCI-H460 cells) [µM] | Structure (SMILES) |
| --- | --- | --- | --- | --- | --- |
| 0.39 | 0.29 | 0.175 | 0.3 | 0.33 | CS(=O)(=O)Cc1cccc(Nc2ncc(F)c(-c3ccc(F)c4ccoc34)n2)c1 [Example 1, 5-Fluoro-4-(4-fluoro-1-benzofuran-7-yl)-N-{3-[(methylsulfonyl)methyl]-phenyl}pyrimidin-2-amine] |
| 0.1 | 0.1 | 0.112 | – | 0.114 | CCS(=O)(=O)Cc1cccc(Nc2ncc(F)c(-c3ccc(F)c4ccoc34)n2)c1 [Example 2, N-{3-[(Ethylsulfonyl)methyl]phenyl}-5-fluoro-4-(4-fluoro-1-benzofuran-7-yl)pyrimidin-2-amine] |
| 0.245 | 0.239 | – | 0.392 | 0.23 | CS(=O)(=O)Cc1cc(F)cc(Nc2ncc(F)c(-c3ccc(F)c4ccoc34)n2)c1 [Example 3] |
| 0.242 | 0.243 | 0.057 | 0.313 | 0.146 | Cc1cc(CS(C)(=O)=O)cc(Nc2ncc(F)c(-c3ccc(F)c4ccoc34)n2)c1 [Example 4, 5-Fluoro-4-(4-fluoro-1-benzofuran-7-yl)-N-{3-methyl-5-[(methylsulfonyl)methyl]-phenyl}pyrimidin-2-amine] |
